In US11774455B2, “Peptide aptamer for specific recognition of arginine and its application” (INSTITUTE OF SUBTROPICAL AGRICULTURE, CHINESE ACADEMY OF …, priority 2019, dated 2023):

What was measured:
[1] = Binding verification by isothermal titration calorimeter with L-arginine; details: ITC; 10 μM peptide aptamer titrated into 1 μM L-arginine, 10 mM PBS, pH 7.4, 37° C.; read-out: binding parameter Kd value
Description: In the present invention, a primary sequence of an L-arginine sensing protein which can be recognized with L-arginine is obtained by searching for the L-arginine sensing proteins and transporters from a protein library, followed by cutting the primary sequence of the L-arginine sensing protein into 8 amino acid residues to obtain a peptide library and removing repeated peptide sequences from the peptide library. Next, a molecular simulation is performed on the peptides in the deduplicated peptide library and L-arginine to obtain a peptide aptamer library that can specifically bind to the arginine, and preferably, the peptide aptamer library is selected for experimental verification. Then, a binding verification is carried out on the peptide aptamer library and the arginine by an isothermal titration calorimeter. A verification method is as follows: 1 μM of the L-arginine is titrated with 10 μM of the peptide aptamer, a solvent and a binding buffer is 10 mM PBS buffer, pH is 7.4, and a binding temperature is 37° C., and the peptide aptamer that can specifically bind to the L-arginine can be determined.
Molecular simulation and binding verification of a peptide aptamer with L-arginine • A) Molecular simulation of the peptide aptamer and the L-arginine: AutoDock is used to place the L-arginine on the active site of the peptide aptamer, and its binding mode is predicted. […]

[2] = Isothermal titration calorimeter binding to other amino acids; details: amino acids having a similar structure to L-arginine

Kd [1]: 13.3 µM
binding ability to other amino acids (ITC) [2]: no or very weak binding ability
Sequence: FGHIHEGY [peptide aptamer]
